The text below walks through data of patent publication US20240207202A1, “COMBINATION THERAPIES TARGETING MITOCHONDRIAL BIOGENESIS FOR CANCER THERAPY” (The Wistar Institute of Anatomy and Biology, priority 2015, published 2024).

Holding throughout (format): cell-based, human
For assay [1], the system named is mitochondrial respiration. Kind of assay: Real-time oxygen consumption rates (Seahorse XF 24) in WM9 cells. The note with it: WM9, 72 h, Gamitrinib 1 μM added to PLX4720 10 μM and PD0325901 1 μM. The protocol: FIGS. 5A-5I. Gamitrinib, An Inhibitor of Mitochondrial Hsp90-directed Protein Folding, Suppresses Mitochondrial Biogenesis and Bioenergetics (A) Induction of apoptosis and cell death by PSVue 643 staining in WM9 melanoma cells treated for 72 h with the combination of Gamitrinib (Gami), Rapamycin, Phenformin (Phen), BEZ235 or 2,4-DNP at titrated doses and PLX4720 at 10 μM, PD0325901 at 1 μM and Gamitrinib at 2.5 μM. Cells treated with DMSO were used as the control. The data represent the average of 2 biological replicates. (B) Relative cell viability assessed by CellTiter Glo in WM9 cells treated for 72 h with DMSO, PLX4720 at 10 μM or the combination of PLX4720 at 10 μM and PD0325901 at 1 μM together with Gamitrinib at titrated doses. (C) Immunoblotting of proteins related to OxPhos, glycolysis, autophagy and the MAPK pathway in WM9 cells treated with PLX4720 at 10 μM and Gamitrinib as single inhibitors or in combination during a time course of 72 h. Cells treated with DMSO are used as the control. (D) Real-time oxygen consumption in WM9 cells subjected to the metabolic stress test with Seahorse XF 24 Analyzer. […] (H) Relative gene expression of 7 representative glycolysis genes assessed by qRT-PCR in WM9 cells treated for 48 h with DMSO or the combination of PLX4720 at 10 μM and PD0325901 at 1 μM with or without the addition of Gamitrinib at 2.5 μM. […]

Another assay concerns ATP production. Description: ATP production in WM9 cells. The note with it: WM9, 72 h, Gamitrinib combined with PLX4720 10 μM. As to the method:
Cells were seeded into Black Plate, Clear Bottom 96 Well Assay Plates (Corning Inc., cat. #3603) at a density of 5,000 cells/well. Immediately following the drug treatment, culture media were removed. Cells in each well were incubated with a mixture of reagents containing 50 μl DPBS, 50 μl reconstituted CellTiter-Glo® Assay and 0.5 μl CyQUANT for 10 min in the dark. Both ATP luminescence and CyQUANT fluorescence were recorded with a BioTek Multi-Mode Microplate Reader. The ATP production per cell was calculated as the ratio of ATP luminescence over CyQUANT fluorescence.

For another assay, the system named is WM9 cells. Kind of assay: Cell viability by CellTiter Glo in WM9 cells. The note with it: WM9, 72 h, Gamitrinib titrated with PLX4720 10 μM or PLX4720 10 μM and PD0325901 1 μM. The protocol: Cell viability was measured by the MTT assay or CellTiter-Glo luminescent cell viability assay (Promega). For the assessment of cell clonogenicity, cells were seeded into 12-well tissue culture plates at a density of 500 cells/well as biological triplicates in drug-free medium. Medium was refreshed every 3 or 4 days for 14 days. Colonies were then stained overnight with methanol containing 0.05% crystal violet. After extensive washing with distilled H2O, cells were air-dried and subjected to image acquisition using a Nikon D200 DLSR camera.

For the substance Gamitrinib, the “oxygen consumption rates (basal respiration, proton leak, ATP production, maximal respiration, spare respiratory capacity)” value in assay [1] is “significantly inhibited all key parameters of OCR”. Besides, the ATP production entry with ATP production was “significantly decreased the ATP production”. Moreover, the cell viability entry with WM9 cells is recorded as “significantly impaired cell viability”.
